Measured values reported in ChEMBL document CHEMBL1667726, “Macrophyllionium and macrophyllines A and B, oxindole alkaloids from Uncaria macrophylla” (J Nat Prod, 2011).
≈ marks a conversion by molar mass, not a printed value.

Experiments:
Aorta [1] = assay: Vasodilatory activity in Sprague-Dawley rat thoracic aorta smooth muscle assessed as inhibition of KCL-induced vasoconstriction; type: functional, tissue-based
SW480 = assay: Cytotoxicity against human SW480 cells after 48 hrs by MTT assay; type: functional, cell-based; settings: SW480, 48 h
HL-60 = assay: Cytotoxicity against human HL60 cells after 48 hrs by MTT assay; type: functional, cell-based; settings: HL-60, 48 h
Aorta [2] = assay: Vasodilatory activity in Sprague-Dawley rat thoracic aorta smooth muscle assessed as inhibition of phenylephrine-induced vasoconstriction; type: functional, tissue-based

## CC[C@@H]1CN2CCc3c([nH]c4ccccc34)[C@@H]2C[C@@H]1/C(=C/OC)C(=O)OC [CORYNANTHEIDINE]
Aorta [1]
  IC50: > 30 µg/mL
SW480
  IC50: 23.3 µM
HL-60
  IC50: 14 µM
Aorta [2]
  IC50: > 30 µg/mL

## CC[C@@H]1CN2CC[C@]3(C(=O)Nc4ccccc43)[C@@H]2C[C@@H]1/C(=C\OC)C(=O)OC [CORYNOXINE B]
Aorta [1]
  IC50: > 30 µg/mL
SW480
  IC50: > 40 µM
HL-60
  IC50: > 40 µM
Aorta [2]
  IC50: > 30 µg/mL

## CC[C@@H]1CN2CC[C@@]3(C(=O)Nc4ccccc43)[C@@H]2C[C@@H]1/C(=C\OC)C(=O)OC [CORYNOXINE]
Aorta [1]
  IC50: > 30 µg/mL
SW480
  IC50: > 40 µM
HL-60
  IC50: > 40 µM
Aorta [2]
  IC50: > 30 µg/mL

## CC[C@H]1CN2CCc3c([nH]c4ccccc34)[C@@H]2C[C@@H]1/C(=C/OC)C(=O)OC [DIHYDROCORYNANTHEINE]
Aorta [1]
  IC50: 6.73 µg/mL (≈ 18.3 µM)
SW480
  IC50: > 40 µM
HL-60
  IC50: > 40 µM
Aorta [2]
  IC50: 21.8 µg/mL (≈ 59.2 µM)

## CC[C@H]1CN2CC[C@@]3(C(=O)Nc4ccccc43)[C@@H]2C[C@@H]1/C(=C\OC)C(=O)OC [ISORHYNCHOPHYLLINE]
Aorta [1]
  IC50: > 30 µg/mL
SW480
  IC50: > 40 µM
HL-60
  IC50: > 40 µM
Aorta [2]
  IC50: 18.4 µg/mL (≈ 47.9 µM)

## CC[C@@H]1[C@@H](/C(=C/OC)C(=O)OC)C[C@@H]2N(CC[C@]23C(=O)Nc2ccccc23)[C@H]1CC(C)=O [MACROPHYLLINE A]
Aorta [1]
  IC50: > 30 µg/mL
SW480
  IC50: > 40 µM
HL-60
  IC50: > 40 µM
Aorta [2]
  IC50: 15.9 µg/mL (≈ 36 µM)

## CC[C@@H]1[C@@H](/C(=C/OC)C(=O)OC)C[C@@H]2N(CC[C@@]23C(=O)Nc2ccccc23)[C@H]1CC(C)=O [MACROPHYLLINE B]
Aorta [1]
  IC50: > 30 µg/mL
SW480
  IC50: > 40 µM
HL-60
  IC50: > 40 µM
Aorta [2]
  IC50: > 30 µg/mL

## CC[C@H]1C[N@@+]2(C)CC[C@]3(C([O-])=Nc4ccccc43)[C@H]2C[C@@H]1/C(=C/OC)C(=O)OC [MACROPHYLLIONIUM]
Aorta [1]
  IC50: > 30 µg/mL
SW480
  IC50: > 40 µM
HL-60
  IC50: > 40 µM
Aorta [2]
  IC50: > 30 µg/mL

## CC[C@H]1CN2CC[C@]3(C(=O)Nc4ccccc43)[C@@H]2C[C@@H]1/C(=C\OC)C(=O)OC [RHYNCHOPHYLLINE]
Aorta [1]
  IC50: > 30 µg/mL
SW480
  IC50: > 40 µM
HL-60
  IC50: > 40 µM
Aorta [2]
  IC50: > 30 µg/mL

## COc1ccc(CCN(C)CCCC(C#N)(c2ccc(OC)c(OC)c2)C(C)C)cc1OC (stereo not drawn) [VERAPAMIL]
Aorta [1]
  IC50: 1.41 µg/mL (≈ 3.1 µM)
Aorta [2]
  IC50: 0.32 µg/mL (≈ 0.704 µM)
